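Compound exposure: 48 hours, 5 concentrations, 96-well plates. GI50 = concentration required for 50% inhibition of growth.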 The source made the active and inactive calls. Rule as the data show it: active = GI50 up to about 1.1 µM and inactive = higher.
Assays:
Assay in all cases: DTP human tumour cell line panel, 48 h
786-0 = tested on: 786-0
A498 = tested on: A498
A549 = tested on: A549
EKVX = tested on: EKVX
HOP-92 = tested on: HOP-92
KM12 = tested on: KM12
M19-MEL = tested on: M19-MEL
NCI-H522 = tested on: NCI-H522
OVCAR-4 = tested on: OVCAR-4
OVCAR-5 = tested on: OVCAR-5
SF-268 = tested on: SF-268
SK-MEL-2 = tested on: SK-MEL-2
SK-MEL-5 = tested on: SK-MEL-5
SK-OV-3 = tested on: SK-OV-3
SW-620 = tested on: SW-620
UACC-257 = tested on: UACC-257
RXF 393 = tested on: RXF 393

Measured: GI50

C/C=C/C=N/N(c1nnc(-c2ccccc2)c(-c2ccccc2)n1)S(=O)(=O)c1ccc(C)cc1
inactive: 786-0 6.78 µM | A498 14.3 µM | A549 12 µM | EKVX 17.8 µM | HOP-92 16.2 µM | KM12 9.06 µM | M19-MEL 13.2 µM | NCI-H522 4.75 µM | OVCAR-4 13.2 µM | OVCAR-5 19.3 µM | SF-268 5.46 µM | SK-MEL-2 11.4 µM | SK-MEL-5 8.22 µM | SK-OV-3 18.7 µM | SW-620 4.05 µM | UACC-257 8.34 µM

COc1ccc2c(c1)CC1c3c(cc4c(c3-2)OCO4)CCN1C (stereo not given)
inactive: 786-0 27.6 µM | A498 14.4 µM | A549 21.4 µM | EKVX 33.4 µM | HOP-92 18.1 µM | KM12 30.9 µM | M19-MEL 21.4 µM | NCI-H522 15.6 µM | OVCAR-4 23.1 µM | OVCAR-5 30.1 µM | SF-268 > 10 µM | SK-MEL-2 26.5 µM | SK-MEL-5 16.9 µM | SK-OV-3 21.3 µM | SW-620 19.5 µM | UACC-257 24.1 µM

Nc1ccc(C(=O)NN2C(=O)C(Cl)C2c2ccccc2O)cc1 (stereo not given)
inactive: 786-0 30.2 µM | A549 93.1 µM | EKVX 49.3 µM | HOP-92 > 100 µM | KM12 82.6 µM | M19-MEL 49.1 µM | NCI-H522 62.2 µM | OVCAR-4 60.1 µM | OVCAR-5 41.7 µM | SF-268 70.1 µM | SK-MEL-2 > 100 µM | SK-MEL-5 47.4 µM | SK-OV-3 71.6 µM | SW-620 73.6 µM | UACC-257 > 100 µM

O=C(/C=C/c1ccccc1O)c1cccnc1
inactive: 786-0 > 100 µM | A498 > 100 µM | A549 > 100 µM | EKVX > 100 µM | KM12 > 100 µM | M19-MEL > 100 µM | NCI-H522 > 100 µM | OVCAR-4 > 100 µM | OVCAR-5 > 100 µM | RXF 393 > 100 µM | SF-268 > 100 µM | SK-MEL-2 > 100 µM | SK-MEL-5 > 100 µM | SK-OV-3 > 100 µM | SW-620 > 100 µM | UACC-257 > 100 µM

C(/C=C/N1CCCC1)=C\c1nc(N2CCCC2)c2ccccc2n1
inactive: 786-0 16.6 µM | A498 > 100 µM | A549 48.5 µM | EKVX 20.1 µM | KM12 17.1 µM | M19-MEL 17 µM | OVCAR-4 13.9 µM | OVCAR-5 15.6 µM | SF-268 23.9 µM | SK-MEL-2 22.1 µM | SK-MEL-5 19.1 µM | SK-OV-3 18.6 µM | SW-620 14.3 µM | UACC-257 33.2 µM

CCOc1ccc(/N=N/c2ccc3oc(=O)c(C(=O)Nc4ccc(OC)cc4)cc3c2)cc1
inactive: 786-0 21.9 µM | A498 4.22 µM | A549 40.1 µM | EKVX 26.6 µM | KM12 30.8 µM | M19-MEL 26.4 µM | NCI-H522 21.8 µM | OVCAR-4 7.1 µM | OVCAR-5 32 µM | SF-268 9.1 µM | SK-MEL-2 18.6 µM | SK-MEL-5 15 µM | SK-OV-3 41.9 µM | SW-620 18.5 µM | UACC-257 27.9 µM

Oc1nc(S)nc2c1CCCN2
inactive: 786-0 > 100 µM | A549 > 100 µM | EKVX > 100 µM | HOP-92 > 100 µM | KM12 > 100 µM | M19-MEL > 100 µM | NCI-H522 > 100 µM | OVCAR-5 > 100 µM | RXF 393 > 100 µM | SF-268 > 100 µM | SK-MEL-2 > 100 µM | SK-MEL-5 > 100 µM | SK-OV-3 > 100 µM | SW-620 > 100 µM | UACC-257 > 100 µM

O=C(O)CSc1nnc(-c2ccccc2)[nH]1
inactive: 786-0 > 100 µM | A498 > 100 µM | A549 > 100 µM | EKVX > 100 µM | KM12 > 100 µM | M19-MEL > 100 µM | NCI-H522 > 100 µM | OVCAR-4 > 100 µM | OVCAR-5 > 100 µM | RXF 393 > 100 µM | SF-268 > 100 µM | SK-MEL-2 > 100 µM | SK-MEL-5 > 100 µM | SK-OV-3 > 100 µM | SW-620 > 100 µM

COC(=O)C1C=NNC1C(=O)OC (stereo not given)
inactive: 786-0 > 100 µM | A498 > 100 µM | A549 > 100 µM | EKVX > 100 µM | KM12 > 100 µM | M19-MEL > 100 µM | NCI-H522 > 100 µM | OVCAR-4 > 100 µM | OVCAR-5 > 100 µM | RXF 393 > 100 µM | SF-268 > 100 µM | SK-MEL-2 > 100 µM | SK-MEL-5 > 100 µM | SK-OV-3 > 100 µM | SW-620 > 100 µM | UACC-257 > 100 µM

O=C(/C=C/c1ccccc1)c1ccc(Cl)cc1Cl
inactive: 786-0 17.9 µM | A498 18.3 µM | A549 25.8 µM | EKVX 28.4 µM | HOP-92 35.9 µM | KM12 15.9 µM | M19-MEL 23.4 µM | NCI-H522 13.4 µM | OVCAR-4 20.7 µM | OVCAR-5 20.6 µM | SF-268 28.4 µM | SK-MEL-5 14.1 µM | SK-OV-3 46.9 µM | SW-620 4.8 µM | UACC-257 23.8 µM

COc1ccc(C2(Cl)C(Cl)(C(F)(F)F)C2(Cl)C(F)(F)F)cc1 (stereo not given)
inactive: 786-0 17.2 µM | A549 14.9 µM | EKVX 17.5 µM | HOP-92 13.9 µM | KM12 14 µM | M19-MEL 13.6 µM | OVCAR-4 16.4 µM | OVCAR-5 14.1 µM | RXF 393 12.1 µM | SF-268 15.6 µM | SK-MEL-2 14.2 µM | SK-MEL-5 10.4 µM | SK-OV-3 16.7 µM | SW-620 15 µM | UACC-257 13.6 µM

CC(=O)Oc1c(Br)ccc2cc(C(Br)Br)c(C(=O)c3ccccc3)nc12
inactive: 786-0 22.6 µM | A549 24.3 µM | EKVX 22.5 µM | KM12 19.6 µM | M19-MEL 22.3 µM | NCI-H522 4.21 µM | OVCAR-4 5.01 µM | OVCAR-5 17.3 µM | RXF 393 17.9 µM | SF-268 25.7 µM | SK-MEL-2 20.7 µM | SK-MEL-5 19.1 µM | SW-620 22.4 µM | UACC-257 1.88 µM

C=C(C)C1CC[C@]2(C(=O)O)CCC3(C)[C@H](CCC4[C@@]5(C)CC[C@H](OC6OC(CO)C(O)C6OC6OC(C)C(O)C(O)C6O)[C@@](C)(CO)C5CC[C@]43C)C12 (stereo not given in full)
inactive: 786-0 > 100 µM | A549 > 100 µM | EKVX > 100 µM | KM12 > 100 µM | M19-MEL > 100 µM | NCI-H522 88.1 µM | OVCAR-4 > 100 µM | OVCAR-5 > 100 µM | RXF 393 > 100 µM | SF-268 > 100 µM | SK-MEL-2 > 100 µM | SK-MEL-5 > 100 µM | SW-620 > 100 µM
